Experiments:
[1] = tested on: Mature, female, Sprague-Dawley rats (pregnancy: uterine implantation sites and fetuses); assay: Anti-gravidity (claudogenic/interceptive, post-coital) evaluation in pregnant rats; assay type: in vivo, rat
Source text: The procedure followed in evaluating the anti-gravidity properties of the nonapeptides of this invention was as follows: Mature, female, Sprague-Dawley rats (350 + 30 grams body weight) maintained on a 14:10 light:dark schedule were caged with fertile male rats on the evening of proestrus. The presence of vaginal sperm the next morning was considered day 1 of pregnancy. The nonapeptide ethylamine produced in the following examples, representative of the entire group of compounds of this invention, was administered subcutaneously in a corn oil vehicle on days 1-7, or 7-12 of pregnancy at a rate of as low as 1 μg/rat/day. One-half the daily dose was administered at 9 A.M. and at 3 P.M. each day. The recipients of day 1-7 treatment were autopsied on day 14. The recipients of day 7-12 treatment were autopsied on day 18 of pregnancy. The effectiveness of the ethylamide and its effective dose was established by the absence of uterine implantation sites and fetuses. The presence of at least one normal fetus was considered to be the criterion for pregnancy. […]

[2] = tested on: Proestrous female Sprague-Dawley rats (ovulation, ova in fallopian tubes); assay: Ovulation induction in Nembutal-blocked proestrous rats; assay type: in vivo, rat
Method: The ovulation-induction properties of the nonapeptides of this invention was determined with the preferred compound, [D-Trp^6,(N-methyl)Leu^7,des-Gly-NH2^10,Pro-ethylamide]LRH as follows: Proestrous female Sprague-Dawley rats were injected intraperitoneally with a hypnotic dose of Nembutal® (50 mg/kg) at 1:30 PM. Between 1:40 and 1:50 PM the rats received the test material via the jugular vein. The following morning the animals were sacraficed and the fallopian tubes examined for ova under a dissecting microscope. […] Thus, in its ovulation induction, the preferred compound of this invention is about ten times as active as its closest structural analogues.

With `CCNC(=O)[C@@H]1CCCN1C(=O)[C@H](CCCNC(=N)N)NC(=O)[C@H](CC(C)C)N(C)C(=O)[C@@H](Cc1c[nH]c2ccccc12)NC(=O)[C@H](Cc1ccc(O)cc1)NC(=O)[C@H](CO)NC(=O)[C@H](Cc1c[nH]c2ccccc12)NC(=O)[C@H](Cc1c[nH]cn1)NC(=O)[C@@H]1CCC(=O)N1` [L-pyroglutamyl-L-histidyl-L-tryptophyl-L-seryl-L-tyrosyl-D-tryptophyl-N-methyl-L-leucyl-L-arginyl-L-prolinethylamide] the “effectiveness of treatment (absence of uterine implantation sites and fetuses)” value ([1]; 1 microgram per rat per day subcutaneously in corn oil, day 1-7 of pregnancy, five rat sample, autopsy day 14) was 100%, the “effectiveness of treatment (absence of uterine implantation sites and fetuses)” value ([1]; 10 micrograms per rat per day subcutaneously in corn oil, day 7-12 of pregnancy, autopsy day 18) was 100% and the “rats showing ovulation inducing activity” value ([2]; 0.1 mg per rat via the jugular vein) was 100%. The “ovulation induction activity relative to closest structural analogues” value ([2]; rat, in vivo) was “about ten”.

With “LRH: LRH itself, the parent hormone used as comparison for ovulation induction (QHWSYGLRPG; Gonadoliberin-1; UniProt P01148 24-33, looked up) [reference compound]” the “dose required to obtain 100 percent ovulation” value ([2]; via the jugular vein) was “about 3 mg per rat”.

— patent US4089946A, “Claudogenic-interceptive nonapeptides” (American Home Products Corporation, priority 1976, dated 1978)
